Literature values in patent publication US10899754B2, “Modulators of indoleamine 2,3-dioxygenase” (GLAXOSMITHKLINE INTELLECTUAL PROPERTY DEVELOPMENT LIMITED, priority 2016, dated 2021).

Legend:
naive CD4+CD25- T cells = settings: co-culture with DCs; cited from earlier work
PAN02 pancreatic cells = settings: orally dosed, cited from earlier work

## NS(=O)(=O)NCCNc1nonc1C(=NO)Nc1ccc(F)c(Br)c1 [INCB204360, epacadostat]
Naive CD4+CD25- T cells
  Conversion of naive CD4+CD25- T cells into CD4+FoxP3+ Tregs: blocked the conversion
PAN02 pancreatic cells; PAN02 pancreatic cells, immunocompetent mice
  Inhibition of tumor growth: significant dose-dependent inhibition of tumor growth
PAN02 pancreatic cells; same tumor (PAN02) implanted in immune-deficient mice
  Effect against tumor: without effect
